From US8569264B2, “Antibacterial 4,5-substituted aminoglycoside analogs having multiple substituents” (ISIS Pharmaceuticals, Inc., priority 2005, dated 2013)
Converted amounts (≈) assume the structure as drawn.

What was measured:
P. aurginosa ATCC 29248 = assay: MIC, P. aurginosa ATCC 29248; type: cell-based
Procedure: (§1) The MIC assays are carried out in 150 μL volume in duplicate in 96-well clear flat-bottom plates. The bacterial suspension from an overnight culture growth in appropriate medium is added to a solution of test compound in 4% DMSO in water. Final bacterial inoculum is approximately 10^5-10^6 CFU/well. […] Both ampicillin and tetracycline are used as antibiotic-positive controls in each screening assay for S. pyogenes, E. coli imp-, E. coli, S. aureus, E. faecalis, K. pneumoniae and P. vulgaris. Ciprofloxacin is used as an antibiotic positive control in each screening assay for P. aeruginosa.
(§2) The following compounds were prepared using methods illustrated in the previous examples. The compounds were also examined in standard bacterial assays against E. Coli, S. Aureus, P. aurginosa, K. pneumoniae, P. vulgaris, and A. baumannii to determine activities. Each of the bacterial cultures that are available from ATCC (www.atcc.org) is identified by its ATCC number. A. baumannii is gentamicin sensitive Acinetobacter baumannii #2 from Walter Reed.

E. coli ATCC 25922 = assay: MIC, E. coli ATCC 25922; type: cell-based; settings: for MIC: Escherichia coli; for MIC E. coli ATCC 25922: Example 110
Procedure: as §1, §2

P. aurginosa ATCC 25416 = assay: MIC, P. aurginosa ATCC 25416; type: cell-based
Procedure: as §1, §2

[1] = tested on: gentamicin sensitive Acinetobacter baumannii #2 from Walter Reed; assay: MIC, A. baumannii WReed 2; type: cell-based; settings: for MIC: Acinetobacter baumannii
Procedure: as §1, §2

K. pneumoniae ATCC 10031 = assay: MIC, K. pneumoniae ATCC 10031; type: cell-based; settings: for MIC: Klebsiella pneumoniae; for MIC K. pneumoniae ATCC 10031: Example 110
Procedure: as §1, §2

P. vulgaris ATCC 8427 = assay: MIC, P. vulgaris ATCC 8427; type: cell-based; settings: for MIC: Proteus vulgaris; for MIC P. vulgaris ATCC 8427: Example 110
Procedure: as §1, §2

S. aureus ATCC 13709 = assay: MIC, S. aureus ATCC 13709; type: cell-based; settings: for MIC: Staphylococcus aureus; for MIC S. aureus ATCC 13709: Example 110
Procedure: as §1, §2

[2] = tested on: Staphylococcus aureus (Smith Strain ATCC 13709); assay: Staphylococcus aureus mouse protection assay; type: in vivo, mice; settings: Staph Conc. 10^6, 10% Mucin, the 13th table
Procedure: Two of the novel aminoglycoside compounds of the invention were examined for their anitbacterial activity against staphylococcus aureus. Mice were fed with autoclaved commercial food pellets and sterile water ad libitum. Animals were inoculated intraperitoneally with 0.5 mL/mouse of the indicated concentration of S. aureus (ATCC 13709) containing 10% mucin. There were 10 mice in each treatment group and compounds were administered subcutaneously one and 3 hour after infection. Compounds 15a (R4═R5═CH3) and 15j (R4═H, R5═(CH2)2C6H5)) were used at 75 mg/kg, 37.5 mg/kg, 18.8 mg/kg, 9.4 mg/kg, 4.7 mg/kg, 2.3 mg/kg, 1.17 mg/kg and 0.5 mg/kg. Amakacin, paromomycin and neomycin were used as the positive controls at concentrations of 2 mg/kg, 1 mg/kg and 0.5 mg/kg.
Test compound was administered as an aqueous buffer solution (phosphate buffered saline (PBS), pH=7.4).

E. Coli = assay: MIC, E. Coli; type: cell-based
Procedure, shortened: (§3)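 Broth microdilution in duplicate, 150 μL: overnight-culture bacteria were added to compound in 4% DMSO in water. Final inoculum was about 10^5–10^6 CFU/well.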

[3] = target: 18S ribosomal subunit RNA target; assay: Mass spectrometry based binding assay (FTICR), 18S; settings: Example 108
Procedure: (§4) In a typical experiment, 10 μL of an aqueous solution containing 100 mM ammonium acetate buffer, 2.5 or 5 μM of each RNA, and 33% isopropyl alcohol (to aid ion desolvation) was prepared with different concentrations of each ligand or ligand mixture Samples were introduced into the electrospray ionization source (negative ionization mode) at 1 μL/min and ions were stored for 1 sec in an RF-only hexapole following desolvation. The abundances were integrated from the respective ions for free RNA and the ligand-RNA complex. The primary (1:1 RNA:ligand) and secondary (1:2 complex, if observed). […] The peak ratios were measured at each concentration, then a plot of complex/free RNA versus concentration of ligand added was fitted to a second (or higher) order binding polynomial to determine the KD.

[4] = target: 16S ribosomal subunit RNA target; assay: Mass spectrometry based binding assay (FTICR), 16S; settings: Example 108
Procedure: as §4, with “[…],” for “2.5 or 5 μM of each RNA,”

[5] = tested on: E. coli S30 bacterial extract (pBestLuc firefly luciferase reporter); assay: Coupled bacterial transcription/translation assay; type: biochemical; settings: Example 108; read-out: Trans/Trans IC50
Procedure: The DNA template, pBestLuc™ (Promega), is a plasmid containing a reporter gene for firefly luciferase fused to a strong tac promoter and ribosome binding site. Messenger RNA from 1 μg pBestLuc is transcribed and translated in E. coli S30 bacterial extract in the presence or absence of test compound. Compounds are tested in a black 96 well microtiter plate with an assay volume of 35 μL. […] The transcription/translation reaction is incubated for 35 minutes at 37° C. followed by detection of functional luciferase with the addition of 30 μL LucLite™ (Packard). Light output is quantitated on a Packard TopCount.

S. Aureus = assay: MIC, S. Aureus; type: cell-based
Procedure, shortened: as §3

Structure (SMILES)	MIC (P. aurginosa ATCC 29248; Example 110) [µM]	MIC (P. aurginosa ATCC 29248; Example 111) [µM]	MIC (E. coli ATCC 25922; ATCC25922, Example 110) [µM]	MIC (E. coli ATCC 25922; ATCC25922, Example 111) [µM]	MIC (P. aurginosa ATCC 25416; Example 110) [µM]	MIC (P. aurginosa ATCC 25416; Example 111) [µM]	MIC ([1]; Example 110) [µM]	MIC ([1]; Example 111) [µM]	MIC (K. pneumoniae ATCC 10031; ATCC10031, Example 110) [µM]	MIC (K. pneumoniae ATCC 10031; ATCC10031, Example 111) [µM]	MIC (P. vulgaris ATCC 8427; ATCC8427, Example 110) [µM]	MIC (P. vulgaris ATCC 8427; ATCC8427, Example 111) [µM]	MIC (S. aureus ATCC 13709; ATCC13709, Example 110) [µM]	MIC (S. aureus ATCC 13709; ATCC13709, Example 111) [µM]	MIC P. aurginosa ATCC 29248 (P. aurginosa ATCC 29248; Example 110) [µM]	MIC E. coli ATCC 25922 (E. coli ATCC 25922) [µM]	MIC P. aurginosa ATCC 25416 (P. aurginosa ATCC 25416; Example 110) [µM]	MIC A. baumannii WReed 2 ([1]; Example 110)	MIC K. pneumoniae ATCC 10031 (K. pneumoniae ATCC 10031) [µM]	MIC P. vulgaris ATCC 8427 (P. vulgaris ATCC 8427) [µM]	other results
CN(C)CC1OC(OC2C(N)CC(N)C(O)C2OC2OC(CO)C(OC3OC(CN)C(O)C(O)C3N)C2O)C(N)C(O)C1O (stereo not drawn) [Compound 15a]	–	–	–	–	–	–	–	–	–	–	–	–	–	–	–	–	–	–	–	–	# Dead mice/Total mice in group ([2]; 0.5 mg/kg subcutaneously): 8/10; # Dead mice/Total mice in group ([2]; 1 mg/kg subcutaneously): 7/10; # Dead mice/Total mice in group ([2]; 2 mg/kg subcutaneously): 7/10; # Dead mice/Total mice in group ([2]; 4.5 mg/kg subcutaneously): 1/10; # Dead mice/Total mice in group ([2]; 9 mg/kg subcutaneously): 0/10; # Dead mice/Total mice in group ([2]; 18 mg/kg subcutaneously): 0/10; # Dead mice/Total mice in group ([2]; 37 mg/kg subcutaneously): 0/10; # Dead mice/Total mice in group ([2]; 75 mg/kg subcutaneously one and 3 hour after infection, intraperitoneal): 0/10; MIC E. Coli. (E. Coli; Example 108): 3 to 6 µM; Kd [3]: 700 nM; Kd [4]: 600 nM; IC50 [5]: 300 nM; MIC S. Aureus (S. Aureus; Example 108): 2 to 3 µM
COc1ccc(CCNCCOC2C(OC3C(O)C(N)CC(N)C3OC3OC(CO)C(O)C(O)C3N)OC(CO)C2OC2OC(CN)C(O)C(O)C2N)cc1 (stereo not drawn) [Compound 9aj]	–	–	–	–	–	–	–	–	–	–	–	–	–	–	>40	5 to 10	>40	2.5-5^ uM	1.3 to 2.5	5 to 10	MIC S. aureus ATCC 13709 (S. aureus ATCC 13709): <0.6 µM
NCC1OC(OC2C(CO)OC(OC3C(O)C(N)CC(N)C3OC3OC(CO)C(O)C(O)C3N)C2OCCN(CCCc2ccccc2)CCc2ccccc2)C(N)C(O)C1O (stereo not drawn) [Compound 9ag]	–	–	–	–	–	–	–	–	–	–	–	–	–	–	>40	10 to 20	10 to 20	10 to 20 µM	2.5 to 5	10 to 20	MIC S. aureus ATCC 13709 (S. aureus ATCC 13709): 0.6 to 1.2 µM

Further lines, with some results ahead:

MIC (P. aurginosa ATCC 29248; Example 110) [µM]	MIC (P. aurginosa ATCC 29248; Example 111) [µM]	MIC (E. coli ATCC 25922; ATCC25922, Example 110) [µM]	MIC (E. coli ATCC 25922; ATCC25922, Example 111) [µM]	MIC (P. aurginosa ATCC 25416; Example 110) [µM]	MIC (P. aurginosa ATCC 25416; Example 111) [µM]	MIC ([1]; Example 110) [µM]	MIC ([1]; Example 111) [µM]	MIC (K. pneumoniae ATCC 10031; ATCC10031, Example 110) [µM]	MIC (K. pneumoniae ATCC 10031; ATCC10031, Example 111) [µM]	MIC (P. vulgaris ATCC 8427; ATCC8427, Example 110) [µM]	MIC (P. vulgaris ATCC 8427; ATCC8427, Example 111) [µM]	MIC (S. aureus ATCC 13709; ATCC13709, Example 110) [µM]	MIC (S. aureus ATCC 13709; ATCC13709, Example 111) [µM]	Structure (SMILES)	MIC P. aurginosa ATCC 29248 (P. aurginosa ATCC 29248; Example 110) [µM]	MIC E. coli ATCC 25922 (E. coli ATCC 25922) [µM]	MIC P. aurginosa ATCC 25416 (P. aurginosa ATCC 25416; Example 110) [µM]	MIC A. baumannii WReed 2 ([1]; Example 110)	MIC K. pneumoniae ATCC 10031 (K. pneumoniae ATCC 10031) [µM]	MIC P. vulgaris ATCC 8427 (P. vulgaris ATCC 8427) [µM]	other results
1.3 to 2.5 (≈ 1.12 to 2.16 µg/mL)	5 to 10 (≈ 4.32 to 8.64 µg/mL)	0.6 to 1.3 (≈ 0.518 to 1.12 µg/mL)	1.3 to 2.5 (≈ 1.12 to 2.16 µg/mL)	0.6 to 1.3 (≈ 0.518 to 1.12 µg/mL)	10 to 20 (≈ 8.64 to 17.3 µg/mL)	0.6 to 1.3 (≈ 0.518 to 1.12 µg/mL)	10 to 20 (≈ 8.64 to 17.3 µg/mL)	< 0.6	0.3 to 0.6 (≈ 0.259 to 0.518 µg/mL)	0.6 to 1.3 (≈ 0.518 to 1.12 µg/mL)	5 to 10 (≈ 4.32 to 8.64 µg/mL)	0.6 to 1.2 (≈ 0.518 to 1.04 µg/mL)	0.2 to 0.3 (≈ 0.173 to 0.259 µg/mL)	NCC[C@H](O)C(=O)N[C@@H]1C[C@H](N)[C@@H](O[C@H]2O[C@H](CO)[C@@H](O)[C@H](O)[C@H]2N)[C@H](O[C@@H]2O[C@H](CO)[C@@H](O[C@H]3O[C@@H](CN)[C@@H](O)[C@H](O)[C@H]3N)[C@H]2OCCNCCc2ccccc2)[C@H]1O [Compound 46a, N-1-haba-2″-O-phenylethylaminoethyl paromomycin]	–	–	–	–	–	–	–
5 to 10 (≈ 3.58 to 7.17 µg/mL)	5 to 10 (≈ 3.58 to 7.17 µg/mL)	2.5 to 5 (≈ 1.79 to 3.58 µg/mL)	5 to 10 (≈ 3.58 to 7.17 µg/mL)	1.3 to 2.5 (≈ 0.932 to 1.79 µg/mL)	10 to 20 (≈ 7.17 to 14.3 µg/mL)	2.5 to 5 (≈ 1.79 to 3.58 µg/mL)	5 to 10 (≈ 3.58 to 7.17 µg/mL)	0.6 to 1.3 (≈ 0.43 to 0.932 µg/mL)	0.6 to 1.3 (≈ 0.43 to 0.932 µg/mL)	5 to 10 (≈ 3.58 to 7.17 µg/mL)	2.5 to 5 (≈ 1.79 to 3.58 µg/mL)	20 to 40 (≈ 14.3 to 28.7 µg/mL)	1.3 to 2.5 (≈ 0.932 to 1.79 µg/mL)	NCC[C@H](O)C(=O)N[C@@H]1C[C@H](N)[C@@H](O[C@H]2O[C@H](CO)[C@@H](O)[C@H](O)[C@H]2N)[C@H](O[C@@H]2O[C@H](CO)[C@@H](O[C@H]3O[C@@H](CN)[C@@H](O)[C@H](O)[C@H]3N)[C@H]2O)[C@H]1O [Compound 67, N-1-haba paromomycin]	–	–	–	–	–	–	MIC (E. Coli; Escherichia coli, Example 107): 5 to 10 µM (≈ 3.58 to 7.17 µg/mL); MIC (S. Aureus; Staphylococcus aureus, Example 107): 1.3 to 2.5 µM (≈ 0.932 to 1.79 µg/mL)
